According to the NIST ThermoML archive (doi:10.1016/j.jct.2005.03.012):

Test: excess molar enthalpy (molar enthalpy of mixing); xn = mol fraction of the nth substance listed
Details: Liquid

CO [methanol] + O
Details	excess molar enthalpy [kJ/mol]
355.11 K, 5000 kPa, x1 = 0.3	-0.4
373.15 K, 5000 kPa, x1 = 0.1	-0.162
373.15 K, 5000 kPa, x1 = 0.2	-0.222
373.15 K, 5000 kPa, x1 = 0.3	-0.232
373.15 K, 5000 kPa, x1 = 0.4	-0.221
373.15 K, 5000 kPa, x1 = 0.5	-0.207
373.15 K, 5000 kPa, x1 = 0.6	-0.195
373.15 K, 5000 kPa, x1 = 0.7	-0.178
373.15 K, 5000 kPa, x1 = 0.8	-0.151
373.15 K, 5000 kPa, x1 = 0.9	-0.0975
373.82 K, 5000 kPa, x1 = 0.9	-0.0949
374.46 K, 5000 kPa, x1 = 0.8	-0.143
374.83 K, 5000 kPa, x1 = 0.7	-0.165
375.03 K, 5000 kPa, x1 = 0.1	-0.158
375.03 K, 5000 kPa, x1 = 0.2	-0.205
375.03 K, 5000 kPa, x1 = 0.3	-0.212
375.03 K, 5000 kPa, x1 = 0.4	-0.201
375.03 K, 5000 kPa, x1 = 0.5	-0.188
375.03 K, 5000 kPa, x1 = 0.6	-0.177
375.03 K, 5000 kPa, x1 = 0.7	-0.163
375.03 K, 5000 kPa, x1 = 0.8	-0.14
375.03 K, 5000 kPa, x1 = 0.9	-0.0895
375.05 K, 5000 kPa, x1 = 0.1	-0.152
375.09 K, 5000 kPa, x1 = 0.6	-0.177
375.26 K, 5000 kPa, x1 = 0.5	-0.187
375.35 K, 5000 kPa, x1 = 0.9	-0.0886
375.45 K, 5000 kPa, x1 = 0.4	-0.198
375.66 K, 5000 kPa, x1 = 0.3	-0.208
375.68 K, 5000 kPa, x1 = 0.2	-0.202
376.12 K, 5000 kPa, x1 = 0.8	-0.133
376.69 K, 5000 kPa, x1 = 0.7	-0.15
376.94 K, 5000 kPa, x1 = 0.6	-0.16
376.98 K, 5000 kPa, x1 = 0.1	-0.142
377.07 K, 5000 kPa, x1 = 0.5	-0.169
377.26 K, 5000 kPa, x1 = 0.4	-0.179
377.41 K, 5000 kPa, x1 = 0.3	-0.19
377.47 K, 5000 kPa, x1 = 0.2	-0.187
420.87 K, 10000 kPa, x1 = 0.4	0.209
420.97 K, 2000 kPa, x1 = 0.4	0.195
420.98 K, 5000 kPa, x1 = 0.4	0.202
420.98 K, 5000 kPa, x1 = 0.5	0.213
421.12 K, 10000 kPa, x1 = 0.6	0.205
421.18 K, 5000 kPa, x1 = 0.6	0.201
421.19 K, 2000 kPa, x1 = 0.6	0.191
421.39 K, 5000 kPa, x1 = 0.3	0.161
421.51 K, 5000 kPa, x1 = 0.7	0.169
421.69 K, 10000 kPa, x1 = 0.2	0.118
421.8 K, 2000 kPa, x1 = 0.2	0.11
421.84 K, 5000 kPa, x1 = 0.2	0.113
421.92 K, 10000 kPa, x1 = 0.8	0.123
421.97 K, 2000 kPa, x1 = 0.8	0.108
421.98 K, 5000 kPa, x1 = 0.8	0.118
